This is an account of results in patent publication US6555114B1, “Immunodominant human T-cell epitopes of hepatitis C virus” (Innogenetics N.V., priority 1993, dated 2003).

Experiment [1] has as its system PBMC from 32 patients with chronic HCV. The experiment in a line: T cell proliferation assay ((3H)-thymidine incorporation, stimulation index) with PBMC of chronic HCV patients. It counts as cell-based, human. The note with it: for lymphoproliferative response (LPR) to peptide pools and single peptides: IFN responder, LPR to pools 2 and/or 3. (Uptake of a labelled nucleoside into DNA is a usual measure of proliferation.)

Experiment [2] relates to PBMC's from 18 healthy control subjects. Kind of experiment: T cell proliferation assay with PBMC of healthy control subjects. Format: cell-based, human. The note with it: 17 control subjects, 23 proliferation assays. On the procedure: As controls for the specificity of the lymphoproliferative responses, 18 healthy individuals aged 25-58 years (mean 38.6), 10 males and 8 females were selected. These subjects were negative for HCV antibodies and HCV-RNA.
The medium used for all cell cultures consisted of RPMI 1640 supplemented with 25 mM HEPES, 2 mM L-glutamine, 50 U/ml penicillin and 50 μg/ml streptomycin (all from Gibco Europe, Gent, Belgium), 5×10^−5 M 2-mercaptoethanol (Sigma, St. Louis, Mo.) and 10% heat-inactivated pooled human AB serum. This AB serum was obtained from healthy blood donors with blood group AB^+ and was only used when antibodies to HCV and HCV-RNA were absent. This “complemented” RPMI 1640 medium will hereafter be designated “complete medium”.
PBMC were isolated from heparinized venous blood by isopycnic density centrifugation on Ficoll Hypaque (Lymphoprep, Nyegaard, Denmark) and suspended in complete medium. […] PBMC in 200 μl of complete medium were cultured in 96 well round-bottomed microplates (Falcon Plastics) in the absence (unstimulated controls) or presence of varying concentrations of antigens for 5 days at 37° C. in an atmosphere of 5% CO2 in air. 0.5 μCi (^3H)-thymidine was then added to each well and 16 to 20 h later the cultures were harvested onto glass fiber filters using a multichannel cell harvester (PHD, Cambridge, Mass.) to measure the incorporation of (^3H)-thymidine by liquid scintillation counting in an LKB-Wallac 8100 counter (LKB, Bromma, Sweden). Results are expressed as stimulation index (SI; mean cpm of antigen-stimulated cultures/mean cpm of control cultures). Proliferation was considered positive when stimulation index was >3. In some figures the results are expressed as cpm (mean cpm of antigen-stimulated cultures—mean cpm of control cultures). Standard deviations of the mean cpm of triplicate cultures were consistently below 10%.
To analyze and summarize the results of 135 assays performed in the 32 HCV patients, we have chosen to consider the response of an individual patient to a particular antigen preparation (peptide pools 1 to 9, NS1-5*, NS1-7* or NS3 protein) as significant when it induces SI's 3 in at least half of the assays performed. The results shown in Table 4 have been obtained using this scoring method. […] The start of the Interferon therapy serves as the reference point, week 0. None of the patients responded to all the antigens. PBMC's from 13 of 18 (72%) clinical responders and 12 of 14 (85%) non-responders proliferated in response to at least one antigen preparation. All but one antigen preparation, peptide pool 8, induced a proliferative response in at least one subject. The most frequent responses were to peptide pools 2 and 3. Whereas both interferon-responders and non-responders proliferated equally well to peptide pool 2 (56% and 57%, respectively), non-responders reacted less well to peptide pool 3 (29% or 4 of 14) than responders (44% or 8 of 18). […] Clinical non-responders to interferon therapy also reacted more frequently (57 or 8 of 14) upon stimulation with the NS3 protein than responders (24% or 4 of 17). However, none of these differences in proliferative response rates to peptide pools 3, 5 and 9 or to NS3 protein reached statistical significance ([…] in ^2-test). […] Indeed, 8 of 17 responders recognized one or both peptides while none of the non-responders did so. A summary of the results of all these proliferation assays is provided in FIG. 2, in which the response rates of the HCV patients as well as 18 healthy control subjects towards the 12 antigen preparations. Indeed, to establish the relevance of the proliferative responses observed in HCV patients, PBMC's from 18 healthy control subjects were stimulated with the same antigen preparations. Overall, 27 assays were performed: a single assay in 10 subjects, two in 7 volunteers and 3 in one individual. In 12 control subjects none of the antigens induced a proliferative response. […]

Where [3] appears, read: patient 626, αIFN responder (R), week 14 of αIFN therapy.
The mark [4] stands for this setting: patient 627, αIFN non-responder (NR), week 54 of αIFN therapy.
[5] abbreviates: patient 636, αIFN responder (R), week 28 of αIFN therapy.
[6] abbreviates: patient 637, αIFN non-responder (NR), week 45 of αIFN therapy.

Consider “KVIDTLTCGFADLMGYIPLV (hepatitis C virus) [C21]”, for which, in experiment [1] (both αIFN responders tested), the “LPR in αIFN responders (summary of Table 7)” value is on record as “highest LPR”. For the same sequence, the “stimulation index (SI), T-cell recognition” value (shortened to “stimulation index (SI)”) is given as 3.3 in experiment [1] (setting [3]), 3.6 in experiment [1] (setting [4]), “— (Only SI equal or greater than 3 are shown.)” in experiment [1] (setting [5]) and “— (Only SI equal or greater than 3 are shown.)” in experiment [1] (setting [6]). Further, the “lymphoproliferative response (LPR) to peptide pools and single peptides” value in experiment [1] (patient 632, pools 8 assays, single peptides 4 assays) is “+ (significant when it induces SI's 3 in at least half of the assays performed)”. For the same sequence, the “LPR in αIFN non-responders (summary of Table 7)” value in experiment [1] (two αIFN non-responders) is given as “high PLR”. Also, the “number of control subjects that recognized the single peptide” value (“number” below) in experiment [2] is listed as 1. Further, the “share of control subjects that recognized the single peptide” value (“share” below) in experiment [2] came out at 6%.

Consider LLSCLTVPASAYQVRNSTGL [C31], for which the “stimulation index (SI)” value in experiment [1] (patient 620, αIFN non-responder (NR), week 20 of αIFN therapy) is listed as “— (Only SI equal or greater than 3 are shown.)”; in experiment [1] (setting [3]), “— (Only SI equal or greater than 3 are shown.)”; in experiment [1] (setting [4]), “— (Only SI equal or greater than 3 are shown.)”; in experiment [1] (setting [5]) it was “— (Only SI equal or greater than 3 are shown.)”; in experiment [1] (setting [6]), “— (Only SI equal or greater than 3 are shown.)”. Moreover, the “lymphoproliferative response (LPR) to peptide pools and single peptides” value in experiment [1] (patient 639, pools 4 assays, single peptides 2 assays) was “+ (significant when it induces SI's 3 in at least half of the assays performed)”. Besides, in experiment [2], the “number” value turned out to be 1. Moreover, the “share” value in experiment [2] amounted to 6%.

On to “LLSPRGSRPSWGPTDPRRRS (hepatitis C virus) [C17]”, for which the “stimulation index (SI)” value in experiment [1] (setting [3]), in experiment [1] (setting [4]), in experiment [1] (setting [5]) and in experiment [1] (setting [6]) was “— (Only SI equal or greater than 3 are shown.)” throughout. Also, the “number” value in experiment [2] is reported as 2. Further, the “share” value in experiment [2] amounted to 12%.
